Patent publication US20230138851A1, “NOVEL ALKYNE DERIVATIVES” (CARNA BIOSCIENCES, INC., priority 2020, published 2023)

What was measured:
Format in all cases: biochemical
DYRK2 = target: T1, DYRK2 (Homo sapiens, UniProt Q92630); assay: Inhibition test on activity of DYRK family, mobility shift assay (MSA), DYRK2; settings: ATP 40 μM, FITC-labeled DYRKtide peptide substrate, room temperature 1 hour; for IC50: read-out: Inhibitory Activity 2 (IC50 against DYRK2)
T1 construct: purchased Carna Biosciences, Inc. 04-132
T1 sequence (Q92630 1-601): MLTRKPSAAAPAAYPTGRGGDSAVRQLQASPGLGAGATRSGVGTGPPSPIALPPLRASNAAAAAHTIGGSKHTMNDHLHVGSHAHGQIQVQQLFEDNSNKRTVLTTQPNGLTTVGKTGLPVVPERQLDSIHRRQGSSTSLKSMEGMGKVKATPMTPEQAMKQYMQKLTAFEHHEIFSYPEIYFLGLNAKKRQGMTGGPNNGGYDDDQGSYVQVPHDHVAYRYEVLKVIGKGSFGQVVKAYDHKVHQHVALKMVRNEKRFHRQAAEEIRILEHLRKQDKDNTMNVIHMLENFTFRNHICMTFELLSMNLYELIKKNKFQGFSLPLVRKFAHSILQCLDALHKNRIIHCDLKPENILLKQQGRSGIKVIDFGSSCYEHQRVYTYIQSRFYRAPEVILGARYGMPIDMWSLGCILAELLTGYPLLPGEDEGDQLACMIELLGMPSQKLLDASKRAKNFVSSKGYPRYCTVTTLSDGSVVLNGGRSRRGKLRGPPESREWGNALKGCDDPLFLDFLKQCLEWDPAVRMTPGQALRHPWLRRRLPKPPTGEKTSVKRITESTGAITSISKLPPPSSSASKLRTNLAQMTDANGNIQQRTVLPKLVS
Experimental: (§1) [Inhibition Test on Activity of DYRK Family (DYRK1A, DYRK1B, DYRK2, and […])]
(§2) (Method for Measuring Kinase Activity)
(§3) The kinase activity was measured by mobility shift assay (MSA) method using QuickScout Screening Assist™ MSA (commercially available kit manufactured by Carna Biosciences, Inc.). The substrate of the kinase reaction used was an FITC-labeled DYRKtide peptide included in the kit. An assay buffer [20 mM HEPES, 0.01% Triton X-100™, 2 mM dithiothreitol, pH 7.5] was used to create a substrate mixture solution with a substrate (4 μM), MgCl2 (20 mM), and ATP (DYRK1A: 100 μM; DYRK1B: 200 μM; DYRK2: 40 μM; and DYRK3: 20 μM). In addition, kinases (DYRK1A: manufactured by Carna Biosciences, Inc., Cat. No. 04-130; DYRK1B: manufactured by Carna Biosciences, Inc., Cat. No. 04-131; DYRK2; manufactured by Carna Biosciences, Inc., Cat. No. 04-132; and DYRK3; manufactured by Carna Biosciences, Inc., Cat. No. 04-133) were diluted with the assay buffer to prepare enzyme solutions (DYRK1A: 0.2 ng/μL; DYRK1B: 0.08 ng/μL; DYRK2: 0.04 ng/μL; and DYRK3: 0.25 ng/μL). The 10 mM solution of the test compound in DMSO was further diluted with DMSO to 10 levels of the concentration (0.00003 mM, 0.0001 mM, 0.0003 mM, 0.001 mM, 0.003 mM, 0.01 mM, 0.03 mM, 0.1 mM, 0.3 mM, and 1 mM), each of which was subjected to 25-fold dilution with the assay buffer to obtain a drug solution (4% DMSO solution). 5 μL of the drug solution or a control solution (4% DMSO-assay buffer), 5 μL of the substrate mixture solution, and 10 μL of the enzyme solution were mixed in the wells of a polypropylene 384-well plate and allowed to react at room temperature for 1 hour, and then the reaction was quenched by adding 60 μL of the termination buffer included in the kit. Subsequently, the quantities of the substrates (S) and the phosphorylated substrate (P) in the reaction solution were measured using LabChip EZ Reader II system (manufactured by Caliper Life Sciences) according to the protocol of the assay kit.
(§4) (Method for Evaluating Inhibitory Activity)
(§5) The heights of the peaks of the “substrate” and the “phosphorylated substrate” were expressed as S and P, respectively, and a blank containing the assay buffer instead of the enzyme solution was also measured.
(§6) The inhibition rate (%) of the test compound was calculated according to the following equation:
(§7) Inhibition rate (%)=(1−(C−A)/(B−A))×100
(§8) wherein, A, B, and C represent P/(P+S) of the blank well, P/(P+S) of the control solution well, and P/(P+S) of the compound-containing well, respectively.
(§9) The IC50 value was calculated via a regression analysis of the inhibition rate and the test compound concentration (logarithmic value).
(§10) The inhibiting activities of representative compounds of the present invention are shown against DYRK1A, DYRK1B, DYRK2, and DYRK3 in Tables 7 and 8. The kinase activity inhibitory effect was indicated with the mark *** at an IC50 value of less than 0.01 μM; the mark ** at 0.01 μM or more and less than 0.1 μM; the mark * at 0.1 μM or more and less than 1 μM; and the mark — at 1 μM or more (N.D. indicates not measured).

DYRK3 = target: T2, DYRK3 (Homo sapiens, UniProt O43781); assay: Inhibition test on activity of DYRK family, mobility shift assay (MSA), DYRK3; settings: ATP 20 μM, FITC-labeled DYRKtide peptide substrate, room temperature 1 hour; for IC50: read-out: Inhibitory Activity 3 (IC50 against DYRK3)
T2 construct: purchased Carna Biosciences, Inc. 04-133
T2 sequence (O43781 1-588): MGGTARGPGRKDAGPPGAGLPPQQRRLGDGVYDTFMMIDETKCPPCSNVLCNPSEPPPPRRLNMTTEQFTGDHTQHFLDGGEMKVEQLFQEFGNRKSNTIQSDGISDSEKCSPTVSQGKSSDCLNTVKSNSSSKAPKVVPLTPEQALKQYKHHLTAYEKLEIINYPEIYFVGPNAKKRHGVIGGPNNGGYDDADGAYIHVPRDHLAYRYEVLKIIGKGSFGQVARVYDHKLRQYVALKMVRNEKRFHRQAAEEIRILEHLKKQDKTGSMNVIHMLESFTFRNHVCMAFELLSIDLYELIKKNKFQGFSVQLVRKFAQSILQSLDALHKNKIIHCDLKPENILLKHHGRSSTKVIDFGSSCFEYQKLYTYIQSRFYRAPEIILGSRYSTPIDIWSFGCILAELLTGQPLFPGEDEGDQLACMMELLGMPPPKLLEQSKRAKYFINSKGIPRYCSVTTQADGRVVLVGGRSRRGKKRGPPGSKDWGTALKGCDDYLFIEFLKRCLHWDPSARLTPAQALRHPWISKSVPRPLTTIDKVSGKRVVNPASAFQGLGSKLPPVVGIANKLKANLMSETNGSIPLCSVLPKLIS
Experimental: as §1, §2, §3, §4, §5, §6, §7, §8, §9, §10

DYRK1A = target: T3, DYRK1A (Homo sapiens, UniProt Q13627); assay: Inhibition test on activity of DYRK family, mobility shift assay (MSA), DYRK1A; settings: ATP 100 μM, FITC-labeled DYRKtide peptide substrate, room temperature 1 hour; for IC50: read-out: Inhibitory Activity 1a (IC50 against DYRK1A)
T3 construct: purchased Carna Biosciences, Inc. 04-130
Experimental: as §1, §2, §3, §4, §5, §6, §7, §8, §9, §10

Compound	IC50 (DYRK2) [nM]	IC50 (DYRK3) [nM]	Inhibitory Activity 1a (IC50 against DYRK1A) (DYRK1A)	IC50 (DYRK1A) [nM]	Inhibitory Activity 2 (IC50 against DYRK2) (DYRK2)	Inhibitory Activity 3 (IC50 against DYRK3) (DYRK3)
CC#CC1CNC(=O)N1c1nc2c(ccc3nc[nH]c32)s1 (racemic) [Example 35, (RS)-1-(8H-imidazo[4′,5′:5,6]benz[1,2-d]thiazol-2-yl)-5-(prop-1-yn-1-yl)imidazolidin-2-one]	100 to 1000	100 to 1000	** *	–	–	–
CC#C[C@H]1[C@H]([C@H](C)O)NC(=O)N1c1nc2c3c(ccc2s1)OCC3 [Example 83, (4R,5S)-1-(7,8-dihydrobenzofuro[4,5-d]thiazol-2-yl)-4-((S)-1-hydroxyethyl)-5-(prop-1-yn-1-yl)imidazolidin-2-one]	≥ 1000	≥ 1000	–	10 to 100	–	–
CC#C[C@H]1[C@H](CF)NC(=O)N1c1nc2c3c(ccc2s1)OCC3 (single isomer, unassigned) [Example 78, trans-1-(7,8-dihydrobenzofuro[4,5-d]thiazol-2-yl)-4-(fluoromethyl)-5-(prop-1-yn-1-yl)imidazolidin-2-one]	–	100 to 1000	–	< 10	* *	–
CC#CC1CNC(=O)N1c1nc2c3c(ccc2s1)OCC3 (single isomer, unassigned) [Example 10, 1-(7,8-dihydrobenzofuro[4,5-d]thiazol-2-yl)-5-(prop-1-yn-1-yl)imidazolidin-2-one]	≥ 1000	≥ 1000	–	100 to 1000	–	–
O=C1NCC(C#CCO)N1c1nc2c3c(ccc2s1)OCC3 (racemic) [Example 19, (RS)-1-(7,8-dihydrobenzofuro[4,5-d]thiazol-2-yl)-5-(3-hydroxyprop-1-yn-1-yl)imidazolidin-2-one]	100 to 1000	100 to 1000	* * *	–	–	–
CC#C[C@H]1[C@H](CF)NC(=O)N1c1nc2c3c(ccc2s1)OCC3 (single isomer, unassigned) [Example 79, trans-1-(7,8-dihydrobenzofuro[4,5-d]thiazol-2-yl)-4-(fluoromethyl)-5-(prop-1-yn-1-yl)imidazolidin-2-one]	≥ 1000	≥ 1000	–	100 to 1000	–	–
CC#CC1C(CN)NC(=O)N1c1nc2c3c(ccc2s1)OCC3 (stereo not drawn) [Example 63, 4-(aminomethyl)-1-(7,8-dihydrobenzofuro[4,5-d]thiazol-2-yl)-5-(prop-1-yn-1-yl)imidazolidin-2-one]	100 to 1000	–	* * *	–	–	* *
CC#C[C@H]1[C@H](COC)NC(=O)N1c1nc2c3c(ccc2s1)OCC3 (single isomer, unassigned) [Example 77, trans-1-(7,8-dihydrobenzofuro[4,5-d]thiazol-2-yl)-4-(methoxymethyl)-5-(prop-1-yn-1-yl)imidazolidin-2-one]	≥ 1000	≥ 1000	* *	–	–	–
CC#C[C@@H]1[C@H](CF)NC(=O)N1c1nc2c3c(ccc2s1)OCC3 (relative stereo) [Example 80, cis-1-(7,8-dihydrobenzofuro[4,5-d]thiazol-2-yl)-4-(fluoromethyl)-5-(prop-1-yn-1-yl)imidazolidin-2-one]	≥ 1000	100 to 1000	–	< 10	–	–
CC#CC1CNC(=O)N1c1nc2c3c(ccc2s1)OCCN3CCN1CCCCC1 (racemic) [Example 43, (RS)-1-{9-[2-(piperidin-1-yl)ethyl]-8,9-dihydro-7H-thiazolo[4′,5′:3,4]benz[1,2-b][1,4]oxazin-2-yl}-5-(prop-1-yn-1-yl)imidazolidin-2-one]	≥ 1000	≥ 1000	–	100 to 1000	–	–
CC#C[C@H]1[C@H](COC)NC(=O)N1c1nc2c3c(ccc2s1)OCC3 (single isomer, unassigned) [Example 76, trans-1-(7,8-dihydrobenzofuro[4,5-d]thiazol-2-yl)-4-(methoxymethyl)-5-(prop-1-yn-1-yl)imidazolidin-2-one]	≥ 1000	≥ 1000	* *	–	–	–
CC#C[C@@H]1[C@H](CO)NC(=O)N1c1nc2c3c(ccc2s1)OCCO3 (relative stereo) [Example 64, cis-1-(7,8-dihydro-[1,4]dioxino[2′,3′:5,6]benz[1,2-d]thiazol-2-yl)-4-(hydroxymethyl)-5-(prop-1-yn-1-yl)imidazolidin-2-one]	100 to 1000	100 to 1000	* * *	–	–	–
CC#CC1CNC(=O)N1c1nc2c(ccc3ncn(CC(C)(C)O)c32)s1 (racemic) [Example 37, (RS)-1-[8-(2-hydroxy-2-methylpropyl)-8H-imidazo[4′,5′;5,6]benz[1,2-d]thiazol-2-yl]-5-(prop-1-yn-1-yl)imidazolidin-2-one]	100 to 1000	–	* *	–	–	* *
CC#CC1CNC(=O)N1c1nc2c3c(ccc2s1)OCC(C)N3C (single isomer, unassigned) [Example 49, 1-(-8,9-dimethyl-8,9-dihydro-7H-thiazolo[4′,5′:3,4]benz[1,2-b][1,4]oxazin-2-yl)-5-(prop-1-yn-1-yl)imidazolidin-2-one]	≥ 1000	100 to 1000	* * *	–	–	–
[2H]C1([2H])Oc2ccc3sc(N4C(=O)NC[C@H]4C#CC)nc3c2O1 [Example 62, (R)-1-([1,3]dioxolo[4′,5′:5,6]benz[1,2-d]thiazol-7-yl-2,2-d2)-5-(prop-1-yn-1-yl)imidazolidin-2-one]	100 to 1000	–	* * *	–	–	* *
